Assay results taken from patent publication US5164385A, “Azetidine derivatives and hypotensive compositions thereof” (John Wyeth & Brother, Ltd., priority 1990, dated 1992).

How the values were obtained:
[1] = system: arterial blood pressure and heart rate; assay: Hypotensive activity in anaesthetised normotensive rats; assay type: in vivo, rat (Sprague-Dawley); details: iv
Description: The compounds are tested for hypotensive activity in anaesthetised normotensive rats. In this procedure adult male Sprague-Dawley rats weighing 200-400 g are anaesthetised with 70 mg/kg pentobarbitone sodium, i.p. The fermoral (or jugular) vein, the femoral (or carotid) artery, and the trachea are cannulated and the vascular canulae then flushed with 0.3 ml of heparinised saline (125 U/ml). The arterial blood pressure and heart rate are continuously monitored. Top-up doses of 6 or 12 mg/kg anaesthetic are administered as required until a stable base-line is obtained. A cumulative dose-response curve to the test compound is then obtained, using a 5 min dose interval. Each dose is administered in a volume of […] and flushed in with 0.5 ml saline. Systolic, diastolic, and mean arterial blood pressure and heart rate are then calculated 5 min after each dose and compared with the pre-dose value. Mean results from six rats are analysed using analysis of variants. The ED20 (ie the dose giving a 20% fall in mean arterial blood pressure) is also calculated. […] The minimum effective dose of this compound which produced a significant decrease in blood pressure was 1 μg/kg iv, and the ED20 was 5.2 μg/kg iv.

5-HT1 receptor = target: T1, 5-HT1 receptor (Rattus norvegicus, UniProt P19327); assay: 5-HT1 receptor agonist activity in vivo: induction of the 5-HT behavioural syndrome in rats; details: iv, sequential up-down method
T1 construct: measuring their ability to induce the 5-HT behavioural syndrome in rats; from tissue; host or cells: living rats (in vivo, intravenous dosing); endogenous receptor of the central nervous system
T1 sequence (P19327 1-422): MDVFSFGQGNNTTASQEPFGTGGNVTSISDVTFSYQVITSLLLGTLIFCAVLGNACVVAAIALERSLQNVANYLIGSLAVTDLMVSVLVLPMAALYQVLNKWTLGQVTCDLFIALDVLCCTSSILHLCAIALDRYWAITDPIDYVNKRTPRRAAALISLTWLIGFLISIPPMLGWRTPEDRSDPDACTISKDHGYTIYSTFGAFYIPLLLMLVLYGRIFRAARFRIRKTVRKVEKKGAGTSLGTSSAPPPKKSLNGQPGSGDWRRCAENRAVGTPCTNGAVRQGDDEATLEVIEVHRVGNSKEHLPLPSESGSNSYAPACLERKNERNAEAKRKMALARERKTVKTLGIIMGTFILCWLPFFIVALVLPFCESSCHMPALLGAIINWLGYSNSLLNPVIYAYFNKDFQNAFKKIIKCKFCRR
Description: The compounds are evaluated for 5-HT1 receptor agonist activity in vivo by measuring their ability to induce the 5-HT behavioural syndrome in rats (A. R. Green, Neuropharmacology, 1984, 23 1521). Compounds which induce 5-HT-related behaviours are adjudged to be `active`, and a sequential up-down method (A. W. Kimball, W. T. Burnett, and D. G. Doherty, Radiation Research, 1957, 7, 1) is used to determine ED50 values for the compounds.

[2] = anaesthetised normotensive male Sprague-Dawley rats, cumulative dose-response, 5 min after each dose

Oc1cccc2c1CC(N1CCC1)CC2 (centres unmarked) [Example 3, 7-(1-Azetidinyl)-5,6,7,8-tetrahydro-1-naphthalenol]
ED20 ([1]; Rattus norvegicus, 5 min, anaesthetised normotensive rats, read-out: ED20 (dose giving a 20% fall in mean arterial blood pressure)): 5.2 µg/kg | minimal effective dose ([1]; Rattus norvegicus, 5 min, anaesthetised normotensive rats, read-out: minimum effective dose which produced a significant decrease in blood pressure): 1 µg/kg | effect on blood pressure [1, 2]: dose-related falls | effect on heart rate [1, 2]: dose-related falls | ED50 (5-HT1 receptor): 70 µg/kg
